From ChEMBL document CHEMBL3124868, “Design, synthesis, pharmacological evaluation, QSAR analysis, molecular modeling and ADMET of novel donepezil-indolyl hybrids as multipotent cholinesterase/monoamine oxidase inhibitors for the potential treatment of Alzheimer's disease” (Eur J Med Chem, 2014)

Key:
[1] = Selectivity ratio of IC50 for equine serum BuChE to IC50 for electric eel AChE
Cholinesterase = Cholinesterase (Equus caballus, UniProt P81908); assay: Inhibition of equine serum BuChE using butyrylthiocholine iodide as substrate preincubated for 20 mins followed by substrate addition measured after 25 mins by Ellman's method
Cholinesterase, sequence (P81908 whole entry): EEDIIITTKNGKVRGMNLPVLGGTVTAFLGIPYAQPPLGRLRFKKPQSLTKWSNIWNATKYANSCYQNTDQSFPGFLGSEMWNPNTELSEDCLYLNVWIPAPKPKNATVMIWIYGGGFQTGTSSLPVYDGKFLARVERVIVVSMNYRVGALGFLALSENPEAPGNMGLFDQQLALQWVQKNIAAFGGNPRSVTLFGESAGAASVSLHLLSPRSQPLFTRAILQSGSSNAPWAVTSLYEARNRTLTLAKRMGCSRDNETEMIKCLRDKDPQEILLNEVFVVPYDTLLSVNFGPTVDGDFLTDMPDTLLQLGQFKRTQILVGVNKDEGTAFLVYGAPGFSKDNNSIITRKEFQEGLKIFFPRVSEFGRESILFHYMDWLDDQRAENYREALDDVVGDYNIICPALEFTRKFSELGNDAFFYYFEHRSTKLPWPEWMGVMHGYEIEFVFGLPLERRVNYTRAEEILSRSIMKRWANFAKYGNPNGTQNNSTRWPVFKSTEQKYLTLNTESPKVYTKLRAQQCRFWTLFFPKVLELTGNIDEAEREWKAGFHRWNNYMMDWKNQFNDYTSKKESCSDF

[2] = biological target: T1, Amine oxidase [flavin-containing] A (Homo sapiens, UniProt P21397); assay: Inhibition of human recombinant MAO-A using tyramine as substrate preincubated for 30 mins followed by substrate addition measured for 1 hr by fluorometric assay
T1 sequence (P21397 whole entry): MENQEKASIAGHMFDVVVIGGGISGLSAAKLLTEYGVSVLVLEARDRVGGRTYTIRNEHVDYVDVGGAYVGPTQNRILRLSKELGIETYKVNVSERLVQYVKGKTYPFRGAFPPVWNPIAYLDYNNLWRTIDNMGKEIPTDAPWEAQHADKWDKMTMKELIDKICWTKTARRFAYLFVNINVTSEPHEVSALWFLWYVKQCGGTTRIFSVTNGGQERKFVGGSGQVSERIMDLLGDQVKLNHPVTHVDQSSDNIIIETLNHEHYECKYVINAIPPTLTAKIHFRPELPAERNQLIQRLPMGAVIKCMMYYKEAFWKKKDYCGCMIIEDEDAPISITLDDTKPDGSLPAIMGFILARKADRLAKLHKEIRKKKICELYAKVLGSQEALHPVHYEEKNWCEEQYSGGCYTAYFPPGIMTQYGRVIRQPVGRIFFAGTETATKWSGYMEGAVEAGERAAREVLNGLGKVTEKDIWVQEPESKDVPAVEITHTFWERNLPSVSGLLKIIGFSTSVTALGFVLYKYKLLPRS

[3] = biological target: T2, Amine oxidase [flavin-containing] B (Homo sapiens, UniProt P27338); assay: Inhibition of human recombinant MAO-B using tyramine as substrate preincubated for 30 mins followed by substrate addition measured for 1 hr by fluorometric assay
T2 sequence (P27338 whole entry): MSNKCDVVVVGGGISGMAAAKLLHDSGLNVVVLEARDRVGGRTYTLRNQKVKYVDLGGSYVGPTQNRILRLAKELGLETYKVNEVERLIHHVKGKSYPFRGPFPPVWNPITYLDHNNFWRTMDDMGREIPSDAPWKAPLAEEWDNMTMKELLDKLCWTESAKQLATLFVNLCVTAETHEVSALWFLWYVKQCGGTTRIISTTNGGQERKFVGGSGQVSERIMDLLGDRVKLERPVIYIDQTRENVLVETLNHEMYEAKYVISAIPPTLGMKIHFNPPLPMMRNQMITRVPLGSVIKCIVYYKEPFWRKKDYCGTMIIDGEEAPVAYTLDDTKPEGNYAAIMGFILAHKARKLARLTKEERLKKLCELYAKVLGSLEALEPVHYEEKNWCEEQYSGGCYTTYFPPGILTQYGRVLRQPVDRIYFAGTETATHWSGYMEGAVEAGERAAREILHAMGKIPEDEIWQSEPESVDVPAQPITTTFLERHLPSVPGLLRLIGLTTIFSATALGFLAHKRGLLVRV

Acetylcholinesterase = Acetylcholinesterase (Electrophorus electricus, UniProt O42275); assay: Inhibition of electric eel AChE using acetylthiocholine iodide as substrate preincubated for 20 mins followed by substrate addition measured after 5 mins by Ellman's method
Acetylcholinesterase, sequence (O42275 whole entry): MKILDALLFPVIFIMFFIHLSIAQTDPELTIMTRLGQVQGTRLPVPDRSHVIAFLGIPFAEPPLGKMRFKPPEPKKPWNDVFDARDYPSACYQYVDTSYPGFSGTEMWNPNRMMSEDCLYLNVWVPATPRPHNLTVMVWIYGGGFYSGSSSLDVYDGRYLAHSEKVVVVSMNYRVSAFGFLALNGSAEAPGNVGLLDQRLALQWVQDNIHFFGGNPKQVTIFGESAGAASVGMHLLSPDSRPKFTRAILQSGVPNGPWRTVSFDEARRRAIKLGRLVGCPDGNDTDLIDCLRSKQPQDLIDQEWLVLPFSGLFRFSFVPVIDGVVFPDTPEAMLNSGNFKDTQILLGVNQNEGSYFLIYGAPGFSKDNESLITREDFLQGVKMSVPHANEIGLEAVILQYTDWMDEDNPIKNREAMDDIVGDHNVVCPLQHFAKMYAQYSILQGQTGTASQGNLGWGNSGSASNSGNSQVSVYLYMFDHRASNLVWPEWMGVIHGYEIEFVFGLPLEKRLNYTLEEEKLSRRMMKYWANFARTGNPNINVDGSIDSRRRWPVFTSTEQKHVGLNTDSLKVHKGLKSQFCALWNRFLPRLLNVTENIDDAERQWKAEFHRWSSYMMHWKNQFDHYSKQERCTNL

Homo sapiens = species: Homo sapiens; assay: Selectivity ratio of IC50 for human recombinant MAO-B to IC50 for human recombinant MAO-A

Structure (SMILES)	Ratio IC50 [1]	IC50 (Cholinesterase)	IC50 ([2]; read-out: IC50)	IC50 [3]	IC50 (Acetylcholinesterase)	Ratio IC50 (Homo sapiens)	IC50 ([2]; read-out: pIC50 (converted))
Cn1c(C(=O)N2CCOCC2)cc2cc(OCCCC3CCN(Cc4ccccc4)CC3)ccc21	> 370	> 100 µM	> 100 µM	> 100 µM	0.27 µM	> 1	–
C#CCN(C)Cc1cc2cc(OCCCC3CCN(Cc4ccccc4)CC3)ccc2n1C	–	–	0.0042 µM	–	–	–	–
Cn1c(CN2CCOCC2)cc2cc(OCCCC3CCN(Cc4ccccc4)CC3)ccc21	7.9	0.79 µM	4.4 µM	> 100 µM	0.1 µM	> 22.7	–
COc1ccc2c(c1)cc(C(=O)NCc1ccccc1)n2C	> 1	> 100 µM	> 100 µM	> 100 µM	> 100 µM	> 1	–
C#CCNCc1cc2cc(OCCCC3CCN(Cc4ccccc4)CC3)ccc2n1C	4.4	0.83 µM	0.0055 µM	0.15 µM	0.19 µM	27.3	–
Cn1c(CO)cc2cc(OCCCC3CCN(Cc4ccccc4)CC3)ccc21	> 416	> 100 µM	4.26 µM	> 100 µM	0.24 µM	> 23	–
C#CCNC(=O)c1cc2cc(OCCCC3CCN(Cc4ccccc4)CC3)ccc2n1C	> 770	> 100 µM	> 100 µM	> 100 µM	0.13 µM	> 1	–
C=CCNCc1cc2cc(OCCCC3CCN(Cc4ccccc4)CC3)ccc2n1C	3.3	0.46 µM	0.98 µM	15.3 µM	0.14 µM	15.6	–
COc1ccc2c(c1)cc(CNCc1ccccc1)n2C	1.5	22.9 µM	> 100 µM	> 100 µM	15.2 µM	> 1	100 µM
Cn1c(CNCc2ccccc2)cc2cc(OCCCC3CCN(Cc4ccccc4)CC3)ccc21	2	0.29 µM	> 100 µM	> 100 µM	0.14 µM	> 1	100 µM
Cn1c(C(=O)O)cc2cc(OCCCC3CCN(Cc4ccccc4)CC3)ccc21	> 250	> 100 µM	> 100 µM	> 100 µM	0.4 µM	> 1	–
Cn1c(C(=O)NCc2ccccc2)cc2cc(OCCCC3CCN(Cc4ccccc4)CC3)ccc21	> 1	> 100 µM	> 100 µM	> 100 µM	> 100 µM	> 1	–
Cn1c(CNc2ccccc2)cc2cc(OCCCC3CCN(Cc4ccccc4)CC3)ccc21	10	0.85 µM	> 100 µM	> 100 µM	0.084 µM	> 1	100 µM
Cn1c(C(=O)Nc2ccccc2)cc2cc(OCCCC3CCN(Cc4ccccc4)CC3)ccc21	> 1	> 100 µM	> 100 µM	> 100 µM	> 100 µM	> 1	–
CCOC(=O)c1cc2cc(OCCCC3CCN(Cc4ccccc4)CC3)ccc2n1C	> 370	> 100 µM	1.53 µM	> 100 µM	0.27 µM	> 65	–
